Consider four molecules from PMC12430278, “A Simple and Reliable Method for the Determination of Isorhapontigenin in Murine Biological Matrices: Application in a Tissue Distribution Study” (Molecules, 2025).

The nature of series [1]: Stability of stock solutions. In kind it is physicochemical. Conditions: DMSO stock solution, stock solution 0.40 mg/mL, n = 6, read-out: Remaining (%, Mean ± SD). As to the method:
Stock solutions of ISO and trans-stilbene (internal standard, IS) were prepared in DMSO at a final concentration of 1 mg/mL. These solutions were stored at −20 °C and protected from light. The calibration standard and quality control (QC) samples were prepared by serial dilution of the ISO stock solution with pooled blank murine plasma or respective tissue homogenate.
The stability of ISO was evaluated under various storage conditions. Stock solution stability was assessed after storage at room temperature (25 °C) and –20 °C. The stability of ISO in plasma was examined under the following conditions: short-term storage (25 °C for 24 h), long-term storage (–80 °C for 52 days), three freeze–thaw cycles, and post-preparative stability (samples kept in an autosampler at 4 °C for more than 24 h). As it is difficult to evaluate ISO stability directly in tissues, only the short-term stability in tissue homogenates was assessed (6 h on ice). Similarly, post-preparative stability in processed tissue samples was assessed using liver homogenate as a representative, due to the complexity of the hepatic matrix. Stability was considered acceptable if 85–115% of the initial ISO concentration remained.

For series [2] the following is noted: cited from earlier work; for Oral absorption: in vivo.
For series [3] the following is noted: enzymatic-hydrolysis approach; cited from earlier work.

With `C(=C\c1ccccc1)/c1ccccc1` [Internal standard, trans-stilbene, reference compound], the fraction remaining at 24 h, 0.4 mg/mL in series [1] (stored at room temperature for 24 h) is 94.7 ± 0.3%. Moreover, in series [1] (stored at −20 °C for 20 days), the share remaining at 480 h, 0.4 mg/mL came out at 105.3 ± 0.7%.
In the case of `Oc1cc(O)cc(/C=C/c2ccc(O)cc2O)c1` [oxyresveratrol], the Oral absorption result in series [2] is “rapid oral absorption”.
On to `Oc1cc(O)cc(/C=C/c2ccc(O)c(O)c2)c1` [piceatannol, reference compound], for which the Oral absorption result in series [2] was “rapid oral absorption”. Besides, in series [3], the Sulfation entry was “extensive sulfation”.
Turning to `COc1cc(/C=C/c2ccc(O)cc2)cc(OC)c1` [pterostilbene], in series [2] (compared with ISO's limited brain penetration after oral administration), the Brain bioavailability entry is listed as “significantly improved brain bioavailability”.
